“Also recorded” adds a separate entry of the source. Read-outs that look alike come from different tables or passages of the source.
How the values were obtained:
[1] = Plasma protein binding of brigatinib by rapid equilibrium dialysis (RED) of participants' plasma samples; assay type: in vitro ADME, human; details: human, plasma samples of dosed participants, averaged over 2, 8, 24 h postdose, read-out: overall mean (SD) fraction unbound (converted)
Procedure: (§1) Blood samples were collected at 2, 8, and 24 h after brigatinib administration to determine the plasma protein binding of brigatinib.
(§2) Free brigatinib in plasma samples was separated from protein-bound brigatinib by dialyzing the samples across a semipermeable dialysis membrane (8000-Da mass cutoff) using Thermo Scientific™ Single-Use RED (rapid equilibrium dialysis) Plates. For each RED dialysis unit, an aliquot (200 µL) of plasma was transferred into the donor chamber and an aliquot (350 µL) of warm (37 °C) phosphate buffered saline (PBS) was transferred into the receiver chamber of the dialysis unit. The RED devices were incubated at 37 °C with gentle shaking (250 rpm on a rotator shaker) for six hours. A 125-µL aliquot of plasma and 150-µL aliquot of PBS were removed from the dialysis unit and matrix-matched to a final composition of 50:50 (v:v) plasma:PBS, in Rain-X® treated 96-well plates. The matrix-matched samples were immediately frozen at − 80 °C. The protein binding assay and sample analysis were conducted at Charles River Laboratories, Inc. (Worcester, MA, USA). Samples were analyzed for brigatinib concentrations using liquid chromatography with tandem mass spectrometry (LC-MS/MS) methods that have been previously reported using a dual-range assay with a lower limit of quantitation of 0.100 ng/mL and an upper limit of quantitation of 500 ng/mL.
(§3) Individual participant plasma concentration-time profiles were analyzed via noncompartmental analysis methods using Phoenix WinNonlin (version 6.4) to estimate PK parameters. Plasma PK parameters calculated for brigatinib included maximum observed plasma concentration (Cmax); Tmax; area under the plasma concentration-time curve from time zero to the time of the last measurable concentration (AUC0 − last); AUC from time zero to infinity (AUC0−∞); terminal elimination half-life (t1/2); apparent oral clearance (CL/F); and apparent volume of distribution (V/F). The fraction of unbound brigatinib in plasma was determined using the following formula: % free (unbound) = [free brigatinib concentration measured in buffer after RED]/[total concentration measured in plasma] X 100. Unbound brigatinib plasma PK parameters (except unbound CL/F and V/F, which were calculated as total CL/F or total V/F divided by the overall mean fraction unbound) were calculated using the following formula: unbound PK parameter = (parameter based on total concentrations) x (individual participant’s overall mean fraction unbound value). Urinary PK parameters included the amount of brigatinib excreted from time zero to time t (Ae0 − t,), fraction of the dose excreted (%) from time zero to time t (Fe0 − t), and renal clearance (CLR).

plasma protein = test: as above; assay type: in vitro ADME, human
Procedure: as §1, §2, §3

[2] = Safety assessment (adverse events, laboratory, ECG, vital signs) in the single-dose study; assay type: in vivo, human; details: single 90 mg dose
Procedure: Adverse events were recorded throughout the study. Physical examinations were performed at screening and on days − 1 and 8; height, weight, and BMI were collected only at screening. Vital signs were recorded at screening; on day − 1; at 0.5, 1, 2, 3, 4, 6, 8, 12, 24, 36, 48, 60, 72, 96, 120, and 144 h after brigatinib administration; and on day 8. Electrocardiograms were conducted at screening, day − 1, before the brigatinib dose, 3 and 48 h after brigatinib, and on day 8. Clinical laboratory evaluations were performed at screening and on days − 1 and 8.
Descriptive statistics, including number of observations (n), arithmetic mean, standard deviation (SD), coefficient of variation (CV%), median, minimum, and maximum, were calculated for each time point for brigatinib plasma concentrations in each study group. Arithmetic mean; SD; CV%; median, minimum, and maximum values; and geometric mean and geometric CV% were calculated for all PK parameters except Tmax, which was reported as median (minimum, maximum). Statistical comparisons of brigatinib PK parameters (unbound) were made using a one-factor analysis of variance, and 90 % CIs for the geometric mean ratios (GMRs) were calculated for the comparison of Cmax, AUC0 − last, and AUC0−∞ between study groups. Descriptive statistics were used to present safety outcomes, including number and percentage of participants with adverse events.

[3] = tested on: ALK-positive non–small cell lung cancer (NSCLC); design: method as in PMID 31756496; details: cited from earlier work
ALK + NSCLC = tested on: ALK + NSCLC; design: method as in PMID 32780660; details: cited from earlier work
[4] = cited from earlier work
[5] = design: method as in earlier work; details: cited from earlier work
[6] = design: method as in ref 11 = [11]; PMID 31287236; doi:10.1002/cpdd.723; 11. Tugnait M Gupta N Hanley MJ Sonnichsen D Kerstein D Dorer DJ Venkatakrishnan K Narasimhan N Effects of strong CYP2C8 or CYP3A inhibition and CYP3A induction on the pharmacokinetics of brigatinib; details: cited from earlier work
[7] = design: method as in PMID 30570839; details: cited from earlier work
native EML4-ALK = tested on: native EML4-ALK; design: method as in PMID 27780853; details: compared with crizotinib, ceritinib, and alectinib; nonclinical studies; cited from earlier work
[8] = NSCLC progressed on crizotinib, 180 mg qd with seven-day lead-in at 90 mg, median follow-up 24 months
[9] = patients with baseline brain metastases
[10] = brigatinib vs crizotinib, P < 0.0001

COc1cc(N2CCC(N3CCN(C)CC3)CC2)ccc1Nc1ncc(Cl)c(Nc2ccccc2P(C)(C)=O)n1 [brigatinib]
fraction unbound at 6 h ([1]; healthy volunteers with normal renal function): 0.09
fraction unbound at 6 h ([1]; patients with severe renal impairment): 0.08
concentration dependence of protein binding (plasma protein; mean fraction unbound at 2, 8, 24 h postdose, both renal function groups): not concentration-dependent
effect of severe renal impairment on brigatinib plasma protein binding (plasma protein; severe renal impairment vs normal renal function): no effect
clinically significant laboratory values or electrocardiogram findings ([2]; all participants): no participant had clinically significant laboratory values or electrocardiogram findings
adverse events ([2]; healthy volunteers with normal renal function (n = 8)): No healthy volunteers with normal renal function reported adverse events
treatment-emergent adverse events ([2]; patients with severe renal impairment (n = 8)): Two patients with severe renal impairment reported three treatment-emergent adverse events
independent review committee-assessed confirmed objective response rate (ORR) [3, 8]: 56%
median progression-free survival (PFS) [3, 8]: 16.7 months
confirmed intracranial ORR [3, 9]: 67%
median intracranial PFS [3, 9]: 18.4 months
24-month PFS, blinded independent review committee-assessed (ALK + NSCLC; ALK inhibitor-naive patients): 48%
24-month PFS, investigator-assessed (ALK + NSCLC; ALK inhibitor-naive patients): 56%
PFS hazard ratio [95 % CI], blinded independent review committee-assessed (ALK + NSCLC; [10]): 0.49
PFS hazard ratio [95 % CI], investigator-assessed (ALK + NSCLC; [10]): 0.43 [0.31–0.61]
dose proportionality / linearity of systemic exposure [4]: dose proportional over the dose range of 60 mg to 240 mg qd; also recorded: dose-linear and time-independent PK
geometric mean accumulation ratio after repeat dosing [4]: 1.9 to 2.4
oral dose excreted unchanged in the urine [4]: approximately 25%
median time to reach maximum plasma concentration (Tmax) ([4]; postdose): 1 to 3 h
administered dose recovered in feces [5]: 65%
administered dose recovered in urine [5]: 25%
unchanged brigatinib as share of total radioactivity in feces [5]: 41%
unchanged brigatinib as share of total radioactivity in urine [5]: 86%
decrease of systemic exposure (AUC) ([6]; coadministration of strong CYP3A inducers): 80%
increase of systemic exposure (AUC) ([6]; coadministration of strong CYP3A inhibitors): 101%
effect on systemic exposure (AUC) ([6]; coadministration with a strong inhibitor of CYP2C8): did not meaningfully affect
effect of a high-fat meal on total exposure (AUC) [7]: no effect
potency and selectivity as inhibitor of native EML4-ALK (native EML4-ALK): more potent and selective inhibitor of native EML4-ALK
